# Source: patent US20040063681A1, “Methods for using gold (III) complexes as anti-tumor and anti-HIV agents” (priority 2002, published 2004)
# Columns and labels:
# [1] = system: Human Oral Epidermoid Carcinoma (KB-3-1); assay: MTT cytotoxicity, KB-3-1; assay type: cell-based; details: MTT, growth inhibition
# Source text: Human promyelocytic leukemia (HL-60), human hepatocellular carcinoma (HepG2), Human cervix epitheloid carcinoma cells (HeLa) and human oral epidermoid carcinoma cells (KB-3-1), were obtained from American Type Culture Collection (ATCC) (Rockville, Md.). […] Cell culture flasks and 96 well microtitre plates were from Nalge Nunc hit. Culture medium, other medium constituents and phosphate buffered saline (PBS) were obtained from Gibco BRL (Rockville, Md.). Cell Proliferation Kit I (MTT) was purchased from Roche (Mannheim, Germany).
# [2] = system: Human Promyelocytic Leukemia (HL-60); assay: MTT cytotoxicity, HL-60; assay type: cell-based; details: growth inhibition
# Source text: (§1) Human promyelocytic leukemia (HL-60), human hepatocellular carcinoma (HepG2), Human cervix epitheloid carcinoma cells (HeLa) and human oral epidermoid carcinoma cells (KB-3-1), were obtained from American Type Culture Collection (ATCC) (Rockville, Md.). The multi-drug-resistant variant KB-V1 cell line was obtained by stepwise selections for vinblastine resistance as described by Shen et al., J. Biol. Chem. 261:7762-7770 (1986)], and was generously provided by Dr Michael Gottesman (NIH, Bethesda, Md.). Human nasopharyngeal carcinoma cells (SUNE1 and its cisplatin resistance variant, CNE1) were derived from poorly differentiated NPC in Chinese patients as described by Gu et al., Chin. J. Cancer 2:270-272 (1983), and were generously provided by Dr S. W. Tsao (The University of Hong Kong, Hong Kong, PRC). Cell culture flasks and 96 well microtitre plates were from Nalge Nunc hit. Culture medium, other medium constituents and phosphate buffered saline (PBS) were obtained from Gibco BRL (Rockville, Md.). Cell Proliferation Kit I (MTT) was purchased from Roche (Mannheim, Germany).
# The anti-cancer activities of the gold(III) porphyrin complexes were evaluated toward some established human cancer cell lines: promyelocytic leukemia (HL-60), hepatocellular carcinoma (HepG2), cervix epitheloid carcinoma (HeLa), epidermoid carcinoma (KB-3-1) and its multi-drug resistant variant (KB-V1), nasopharyngeal carcinoma (SUNE1) and its cisplatin-resistant variant (CNE1). The experiments were carried out by following the MTT procedure (see Mosmann et al., J. Immunol. Methods 65:55-63 (1983). The IC50 values of the gold(III) porphyrin complexes together with that of cisplatin, and KAuCl4 are provided in Table 4a; and the IC50 values of the gold(III) Schiff-base and bis(pyridyl)carboxamide complexes are shown in Table 4b. The cytotoxicity profiles of some selected gold(III) porphyrin complexes toward SUNE1 and its cisplatin-resistant variant CNE1 are also shown in FIG. 7.
# [3] = UV-vis stability study in buffer solution with and without glutathione; assay type: physicochemical; details: room temperature
# Experimental: UV-vis experiments. For UV-vis analysis, the absorption spectra of 2.5 μM (7 nmoles) of all studied complexes in (1:19) MeCN/Tris buffer solution was monitored over 72 h. […] The gold(III) solution was monitored over 48 h at room temperature and less than 10% decrease in the Soret band intensity was observed without any significant spectral shift in both the Soret and Q-bands.
# Yet, no significant spectral shift and formation of new absorption bands were observed.
# This finding confirms the excellent solution stability of 1j and 1k in physiologically related medium.
# The precipitates are soluble in common organic solvent such as THF, CHCl3 and DMSO but insoluble in aqueous solution.
# [4] = system: Human Oral Epidermoid Carcinoma (multi-drug resistance, KB-V-1); assay: MTT cytotoxicity, KB-V-1; assay type: cell-based; details: MTT, growth inhibition, multi-drug resistant
# Source text: as §1
# The anti-cancer activities of the gold(III) porphyrin complexes were evaluated toward some established human cancer cell lines: promyelocytic leukemia (HL-60), hepatocellular carcinoma (HepG2), cervix epitheloid carcinoma (HeLa), epidermoid carcinoma (KB-3-1) and its multi-drug resistant variant (KB-V1), nasopharyngeal carcinoma (SUNE1) and its cisplatin-resistant variant (CNE1).
# plasmid DNA (pDR2) = assay: Restriction endonuclease (ApaI) fragmentation assay
# Source text: Binding of the metalloporphyrin onto a duplex DNA such as plasmid DNA (pDR2) is expected to occupy the binding site of the restriction enzyme ApaI, thereby inhibiting the enzymatic DNA digestion. See Ikeda et al., J. Am. Chem. Soc. 104:296-297 (1982).
# After ApaI digestion, (lane B), three bands corresponding to 6.6, 4.4 and 2.0 kbp were observed.
# HeLa cells = assay: Confocal microscopic experiment (cell morphology, AO/EB staining); assay type: cell-based, human; details: 0.5 μM, 15 h incubation
# Source text: Confocal Microscopic Experiment. By examining cell morphology using scanning confocal microscopy, the type of cell death can be recognized. The early phase of apoptosis is characterized by the formation of apoptotic bodies while the integrity of the cell membrane is maintained without cell lysis. On the contrary, necrosis is characterized by cell lysis with the internal cellular components such as DNA being exposed. Using suitable staining agents (ethidium bromide (EB) for DNA and acridine orange (AO) for cell membrane) normal, necrotic and apoptotic cells can be distinguished by laser confocal microscopy. See Chan et al., Inorg. Chem. 41:3161-3171 (2002).
# The picture of the cells is depicted in FIG. 12. […] Importantly, no cellular DNA was exposed due to necrosis.
# calf thymus DNA = assay: Viscosity evaluation of DNA; details: (η/ηo)^1/3 vs binding ratio r
# Source text: Viscosity evaluation. The binding interaction of the gold(III) porphyrins can be further investigated by examining the change of DNA viscosity upon binding of the metalloporphyrin. If the metalloporphyrin binds to DNA by intercalation, this would cause chain elongation, unwinding and stiffening of the DNA helix as a consequence of untwisting of the base pairs and helical backbone needed to accommodate the intercalator.
# For comparison, the viscosity profiles for ethidium bromide (intercalator) and Hoechst 33342 (minor groove binder) are also shown is FIG. 10.
structure (smiles),measurement,setting,value
C1=Cc2nc1c(-c1ccccc1)c1ccc([n-]1)c(-c1ccccc1)c1nc(c(-c3ccccc3)c3ccc([n-]3)c2-c2ccccc2)C=C1.[Au+3].[Cl-] [Complex 1a],IC50,[1],200 nM
same,IC50,[2],730 nM
same,decrease in the Soret band intensity,"[3]; 2.5 μM in Tris buffer/MeCN (19:1), 48 h",less than 10%
same,decrease of the Soret band intensity,"[3]; glutathione 2 mM in Tris buffer/MeCN=19:1, 48 h",about 27%
same,IC50,[4],120 nM
same,effect on ApaI digestion of pDR2,plasmid DNA (pDR2); Complex:DNA = 0.1:1 (lane C),partial DNA digestion was observed
same,effect on ApaI digestion of pDR2,plasmid DNA (pDR2); Complex:DNA bp = 1:1 (lane D),inhibition of the DNA digestion was observed
same,cell morphology (type of cell death),HeLa cells,living cells and apoptotic cells were observed
same,change in viscosity of the DNA,calf thymus DNA,no appreciable change in viscosity of the DNA
